Among the data in patent publication US20230151003A1, “COMPOUNDS AND METHODS OF USE” (Exelixis, Inc., priority 2020, published 2023) are IC50 values, retold here.

One assay has as its target KDR (Homo sapiens, UniProt P35968). Nature of the assay: KDR autophosphorylation ELISA in HUVEC cells. Also on record: endogenous in cells; host or cells: HUVEC (Lonza #C2519A). In kind it is cell-based. Conditions: Table 3 Cellular Activities, VEGF165-stimulated, phospho-KDR ELISA. A digest of the protocol: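 Compound pretreatment (1 h, 0.3% DMSO) of serum-starved HUVEC preceded a 5 min pulse of 100 ng/mL VEGF165, after which cells were lysed. Phospho-KDR was quantified by ELISA relative to stimulated and unstimulated controls.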
In general terms: ELISA stands for enzyme-linked immunosorbent assay.

The target in the next assay is T1, AXL (Homo sapiens, UniProt P30530).
T1 construct: endogenous in cells; host or cells: A-172 glioblastoma cells (ATCC #CRL-1620)
T1 sequence (P30530 26-894): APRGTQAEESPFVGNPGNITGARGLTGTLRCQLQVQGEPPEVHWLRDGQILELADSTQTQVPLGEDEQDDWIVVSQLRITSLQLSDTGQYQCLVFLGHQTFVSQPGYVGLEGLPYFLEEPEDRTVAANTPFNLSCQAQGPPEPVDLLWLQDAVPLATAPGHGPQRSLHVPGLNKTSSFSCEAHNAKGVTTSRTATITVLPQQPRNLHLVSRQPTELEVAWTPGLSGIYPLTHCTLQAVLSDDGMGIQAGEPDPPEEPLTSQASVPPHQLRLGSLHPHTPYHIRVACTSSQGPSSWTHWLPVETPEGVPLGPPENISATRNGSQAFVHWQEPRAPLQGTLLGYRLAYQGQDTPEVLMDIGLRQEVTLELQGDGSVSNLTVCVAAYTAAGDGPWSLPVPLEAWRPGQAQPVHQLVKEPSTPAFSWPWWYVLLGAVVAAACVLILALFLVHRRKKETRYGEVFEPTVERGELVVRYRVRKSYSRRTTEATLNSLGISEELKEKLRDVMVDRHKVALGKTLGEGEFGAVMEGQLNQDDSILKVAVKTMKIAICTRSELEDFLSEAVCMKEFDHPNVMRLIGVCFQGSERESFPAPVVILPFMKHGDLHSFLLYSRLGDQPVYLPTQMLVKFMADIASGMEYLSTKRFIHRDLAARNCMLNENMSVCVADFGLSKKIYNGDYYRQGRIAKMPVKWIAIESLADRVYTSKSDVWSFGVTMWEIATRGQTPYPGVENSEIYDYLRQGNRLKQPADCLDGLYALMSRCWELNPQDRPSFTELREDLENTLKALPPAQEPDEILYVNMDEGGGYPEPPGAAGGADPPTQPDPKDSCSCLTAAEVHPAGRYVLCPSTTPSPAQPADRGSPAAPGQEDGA
Nature of the assay: AXL autophosphorylation ELISA in A-172 cells. In kind it is cell-based. Conditions: Table 3 Cellular Activities, Gas6-stimulated, phospho-AXL ELISA. As for the experimental part:
A-172 glioblastoma cells (ATCC #CRL-1620) were seeded at 2.5×10^5 cells/well onto 24-well plates (Greiner #662165), in DMEM (Thermo Fisher #11995-040) containing 10% FBS (Thermo Fisher #26140-079), 1% MEM NEAA (Thermo Fisher #11140-050), 1% GlutaMax (Thermo Fisher #35050-061), and 1% Penicillin Streptomycin (Thermo Fisher #15140-122). A-172 cells were incubated at 37° C., 5% CO2 for 24 h and then starved for 24 h in serum-free medium. Test compounds were serially diluted to produce an 8-point dose curve in fresh serum-free medium to a final concentration of 0.3% DMSO (vehicle) and added to the cells and incubated for 1 h. Cells were then stimulated with 1 μg/mL recombinant human Gas6 (R&D Systems #885-GSB-500) for 15 min, washed with cold PBS, and immediately lysed with 150 μL of cold 1× lysis buffer [20 mM Tris, 137 mM sodium chloride, 2 mM EDTA, 10% glycerol, 1% NP-40 alternative, 1 mM activated sodium orthovanadate, 1 mM PefaBloc SC (Sigma-Aldrich #11429868001), protease/phosphatase inhibitor tablet (Thermo Fisher #A32959)]. Lysates were collected and 100 μL/well added into the human phospho-AXL DuoSet IC ELISA (R&D Systems #DYC2228-2). Assay was performed according to manufacturer's instructions and sample phospho-AXL concentrations were extrapolated using human phospho-AXL control (R&D Systems #841645) as a standard. Positive control wells (100% activity) contained Gas6-stimulated, DMSO-treated cell lysates. Negative control wells (0% activity) contained Gas6-stimulated, reference inhibitor-treated cell lysates. IC50 values were calculated by nonlinear regression analysis using a 4-parameter logistic curve fit in ActivityBase XE (IDBS).

Counter-ions that a name gives are not always drawn.

Chain of KDR (P35968 20-1356): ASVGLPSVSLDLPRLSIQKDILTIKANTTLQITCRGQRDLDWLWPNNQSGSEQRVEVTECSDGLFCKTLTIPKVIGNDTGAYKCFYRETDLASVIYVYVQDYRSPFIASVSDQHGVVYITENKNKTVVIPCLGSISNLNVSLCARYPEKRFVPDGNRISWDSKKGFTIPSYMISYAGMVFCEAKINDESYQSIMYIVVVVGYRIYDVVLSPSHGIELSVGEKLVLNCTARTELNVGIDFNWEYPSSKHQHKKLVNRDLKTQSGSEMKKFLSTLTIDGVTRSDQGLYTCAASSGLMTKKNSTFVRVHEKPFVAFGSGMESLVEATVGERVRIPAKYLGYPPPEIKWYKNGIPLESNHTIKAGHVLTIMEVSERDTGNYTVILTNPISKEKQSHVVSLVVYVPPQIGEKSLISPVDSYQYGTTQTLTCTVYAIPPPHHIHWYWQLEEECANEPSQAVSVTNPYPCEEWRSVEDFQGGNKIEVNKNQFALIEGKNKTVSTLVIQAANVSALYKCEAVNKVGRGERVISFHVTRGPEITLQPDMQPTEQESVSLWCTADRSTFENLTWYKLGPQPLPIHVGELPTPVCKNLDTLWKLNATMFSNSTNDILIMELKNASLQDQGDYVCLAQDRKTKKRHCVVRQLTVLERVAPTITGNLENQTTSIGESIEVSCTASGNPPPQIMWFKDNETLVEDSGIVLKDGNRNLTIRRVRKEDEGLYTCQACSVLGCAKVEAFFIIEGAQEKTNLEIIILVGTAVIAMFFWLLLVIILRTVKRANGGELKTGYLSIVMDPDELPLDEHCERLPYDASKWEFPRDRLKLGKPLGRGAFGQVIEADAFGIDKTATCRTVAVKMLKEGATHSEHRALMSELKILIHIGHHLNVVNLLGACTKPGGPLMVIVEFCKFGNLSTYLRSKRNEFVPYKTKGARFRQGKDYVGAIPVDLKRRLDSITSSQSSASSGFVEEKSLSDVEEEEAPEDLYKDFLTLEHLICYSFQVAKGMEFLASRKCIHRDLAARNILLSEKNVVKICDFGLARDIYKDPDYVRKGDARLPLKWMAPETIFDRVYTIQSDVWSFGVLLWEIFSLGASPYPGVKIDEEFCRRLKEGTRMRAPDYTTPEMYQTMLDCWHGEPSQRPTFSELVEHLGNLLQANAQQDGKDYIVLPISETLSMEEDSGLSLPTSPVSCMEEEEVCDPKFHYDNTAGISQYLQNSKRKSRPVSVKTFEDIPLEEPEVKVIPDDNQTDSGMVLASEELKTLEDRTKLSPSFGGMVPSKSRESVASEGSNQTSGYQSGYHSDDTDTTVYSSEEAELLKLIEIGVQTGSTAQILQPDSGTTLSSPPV

With `COc1cc2nccc(Oc3ccc(NC(=O)c4cc(C(C)=O)c(C)n(-c5ccc(F)cn5)c4=O)cc3F)c2nc1OC` [Compound 59, 5-Acetyl-N-[4-[(6,7-dimethoxy-1,5-naphthyridin-4-yl)oxy]-3-fluorophenyl]-1-(5-fluoropyridin-2-yl)-6-methyl-2-oxopyridine-3-carboxamide], the IC50 against KDR is 100 to 300 nM; against AXL it was no more than 100 nM.

Consider `COc1cc2nccc(Oc3ccc(NC(=O)c4c5n(cc(-c6ccoc6)c4=O)CCOC5)cc3F)c2nc1OC` [Compound 306, N-[4-[(6,7-Dimethoxy-1,5-naphthyridin-4-yl)oxy]-3-fluorophenyl]-7-(furan-3-yl)-8-oxo-3,4-dihydro-1H-pyrido[2,1-c][1,4]oxazine-9-carboxamide], for which the IC50 is 300 to 1000 nM at KDR and no more than 100 nM on AXL.

As for `COc1cc2nccc(Oc3ccc(NC(=O)c4c(C)nc(C)c(-c5ccc(F)cn5)c4O)cc3F)c2nc1OC` [Compound 218, N-[4-[(6,7-Dimethoxy-1,5-naphthyridin-4-yl)oxy]-3-fluorophenyl]-5-(5-fluoropyridin-2-yl)-4-hydroxy-2,6-dimethylpyridine-3-carboxamide], the IC50 against KDR and at AXL was no more than 100 nM throughout.

For the molecule `COc1cc2nccc(Oc3ccc(NC(=O)c4cc(C#N)c(C)n(-c5ccc(F)cn5)c4=O)cc3F)c2nc1OC` [Compound 56, 5-Cyano-N-[4-[(6,7-dimethoxy-1,5-naphthyridin-4-yl)oxy]-3-fluorophenyl]-1-(5-fluoropyridin-2-yl)-6-methyl-2-oxopyridine-3-carboxamide], the IC50 against KDR is 300 to 1000 nM; against AXL, no more than 100 nM.

For the molecule `COc1cc2nccc(Oc3ccc(NC(=O)c4cc(C(C)=O)c(C)n(-c5ccco5)c4=O)cc3)c2nc1OC` [Compound 237, 5-Acetyl-N-[4-[(6,7-dimethoxy-1,5-naphthyridin-4-yl)oxy]phenyl]-1-(furan-2-yl)-6-methyl-2-oxopyridine-3-carboxamide], the IC50 is 300 to 1000 nM at KDR and no more than 100 nM against AXL.

For `COCCOc1cc2nccc(Oc3ccc(NC(=O)c4c(C)n(C)c(C)c(-c5coc6ccccc56)c4=O)cc3F)c2nc1OC` [Compound 264, 5-(1-Benzofuran-3-yl)-N-[3-fluoro-4-[[6-methoxy-7-(2-methoxyethoxy)-1,5-naphthyridin-4-yl]oxy]phenyl]-1,2,6-trimethyl-4-oxopyridine-3-carboxamide], the IC50 was 300 to 1000 nM against KDR and no more than 100 nM on AXL.

On to `COc1cnc2c(Oc3ccc(NC(=O)c4cc(C(C)=O)c(C)n(-c5ccoc5)c4=O)cc3F)ccnc2c1` [Compound 240, 5-Acetyl-N-[3-fluoro-4-[(7-methoxy-1,5-naphthyridin-4-yl)oxy]phenyl]-1-(furan-3-yl)-6-methyl-2-oxopyridine-3-carboxamide], for which the IC50 on KDR was 300 to 1000 nM; on AXL, no more than 100 nM.

In the case of `COc1cnc2c(Oc3ccc(NC(=O)c4cc(C(C)=O)c(C)n(-c5ccco5)c4=O)cc3F)ccnc2c1` [Compound 238, 5-Acetyl-N-[3-fluoro-4-[(7-methoxy-1,5-naphthyridin-4-yl)oxy]phenyl]-1-(furan-2-yl)-6-methyl-2-oxopyridine-3-carboxamide], the IC50 against KDR is 300 to 1000 nM; against AXL it was 100 to 300 nM.

Consider `COc1cc2nccc(Oc3ccc(NC(=O)c4c(C)ncc(-c5cccnc5)c4O)cc3F)c2nc1OC` [Compound 228, N-[4-[(6,7-Dimethoxy-1,5-naphthyridin-4-yl)oxy]-3-fluorophenyl]-4-hydroxy-2-methyl-5-pyridin-3-ylpyridine-3-carboxamide], for which the IC50 against KDR and against AXL was no more than 100 nM throughout.

Take `COc1cc2nccc(Oc3ccc(NC(=O)c4c5n(cc(-c6ccc(C)s6)c4=O)CCOC5)cc3F)c2nc1OC` [Compound 304, N-[4-[(6,7-Dimethoxy-1,5-naphthyridin-4-yl)oxy]-3-fluorophenyl]-7-(5-methylthiophen-2-yl)-8-oxo-3,4-dihydro-1H-pyrido[2,1-c][1,4]oxazine-9-carboxamide]: the figures for the IC50 against KDR and against AXL were 300 to 1000 nM and no more than 100 nM, respectively.

As to `COc1cc2nccc(Oc3ccc(NC(=O)c4c(C)n(C)c(C)c(-c5cc6ccccc6o5)c4=O)cc3F)c2nc1OC` [Compound 261, 5-(1-Benzofuran-2-yl)-N-[4-[(6,7-dimethoxy-1,5-naphthyridin-4-yl)oxy]-3-fluorophenyl]-1,2,6-trimethyl-4-oxopyridine-3-carboxamide], the values for the IC50 on KDR and at AXL were 300 to 1000 nM and no more than 100 nM, respectively.

Take `COCCOc1cc2nccc(Oc3ccc(NC(=O)c4c(C)n(C)c(C)c(-c5ccco5)c4=O)cc3F)c2nc1OC` [Compound 254, N-[3-Fluoro-4-[[6-methoxy-7-(2-methoxyethoxy)-1,5-naphthyridin-4-yl]oxy]phenyl]-5-(furan-2-yl)-1,2,6-trimethyl-4-oxopyridine-3-carboxamide]: the IC50 against KDR and on AXL was no more than 100 nM in each case.

On to `Cc1ccc(C(=O)Nc2ccc(Oc3ccnc4cnc(Cl)cc34)c(F)c2)c(=O)n1-c1ccc(F)cn1` [Compound 54A, N-[4-[(6-Chloro-1,7-naphthyridin-4-yl)oxy]-3-fluorophenyl]-1-(5-fluoropyridin-2-yl)-6-methyl-2-oxopyridine-3-carboxamide], for which the 50% inhibitory concentration (IC50) against KDR and against AXL was 100 to 300 nM throughout.

As to `COc1cc2nccc(Oc3ccc(NC(=O)c4cccn(-c5ccnc(O)c5)c4=O)cc3F)c2nc1OC` [Compound 248, N-[4-[(6,7-Dimethoxy-1,5-naphthyridin-4-yl)oxy]-3-fluorophenyl]-1-(2-hydroxypyridin-4-yl)-2-oxopyridine-3-carboxamide hydrochloride], the IC50 against KDR and against AXL was 300 to 1000 nM in each case.

Regarding `COc1ccc2nccc(Oc3ccc(NC(=O)c4ccc(C)n(-c5ncc(F)cc5C)c4=O)cc3F)c2n1` [Compound 53, N-[3-Fluoro-4-[(6-methoxy-1,5-naphthyridin-4-yl)oxy]phenyl]-1-(5-fluoro-3-methylpyridin-2-yl)-6-methyl-2-oxopyridine-3-carboxamide], the IC50 on KDR and at AXL was no more than 100 nM throughout.

`COc1cc2nccc(Oc3ccc(NC(=O)c4cccn(-c5ccncc5)c4=O)cc3F)c2nc1OC` [Compound 229, N-[4-[(6,7-Dimethoxy-1,5-naphthyridin-4-yl)oxy]-3-fluorophenyl]-2-oxo-1-pyridin-4-ylpyridine-3-carboxamide]: the IC50 against KDR and against AXL was no more than 100 nM each time.

As to `COc1cc2nccc(Oc3ccc(NC(=O)c4c(C)n(C)cc(-c5ccc(F)cn5)c4=O)cc3F)c2nc1OC` [Compound 71, N-[4-[(6,7-Dimethoxy-1,5-naphthyridin-4-yl)oxy]-3-fluorophenyl]-5-(5-fluoropyridin-2-yl)-1,2-dimethyl-4-oxopyridine-3-carboxamide], the IC50 against KDR was 300 to 1000 nM; against AXL it was no more than 100 nM.

In the case of `COc1cc2nccc(Oc3ccc(NC(=O)c4c5n(cc(-c6ccc(C)s6)c4=O)CCOC5)cc3)c2nc1OC` [Compound 305, N-[4-[(6,7-Dimethoxy-1,5-naphthyridin-4-yl)oxy]phenyl]-7-(5-methylthiophen-2-yl)-8-oxo-3,4-dihydro-1H-pyrido[2,1-c][1,4]oxazine-9-carboxamide], the IC50 is 300 to 1000 nM at KDR and no more than 100 nM on AXL.

A word on the IC50: it is the concentration that gives 50% inhibition. The low end stands for higher potency, the high end for lower potency.
